Test results from ChEMBL document CHEMBL6120938, “Covalent small-molecule inhibitors of SARS-CoV-2 Mpro: Insights into their design, classification, biological activity, and binding interactions” (Eur J Med Chem, 2024).
Where a SMILES comes first, the peptide text is derived from it. The star is where a group is joined. Octanoyl = CCCCCCCC(=O)*

Legend:
[1] = target: T1, Replicase polyprotein 1ab (Severe acute respiratory syndrome coronavirus 2, UniProt P0DTD1); assay: Inhibition of SARS-CoV-2 3CL protease
[2] = Inhibition of SARS-CoV-2 Main protease; parameters: species or system Severe acute respiratory syndrome coronavirus 2
SARS-CoV-2 [3] = assay: Antiviral activity against SARS-CoV-2 infected in Vero E6 cells assessed as inhibition of viral replication; type: functional, organism-based; conditions: Severe acute respiratory syndrome coronavirus 2, Vero C1008
[4] = Inhibition of recombinant SARS-CoV-2 Wuhan-Hu-1 main protease extracted from Escherichia coli cells using Dabcyl-KTSAVLQSGFRKME-Edans as substrate incubated for 60 mins by FRET assay; parameters: species or system Severe acute respiratory syndrome coronavirus 2
[5] = target: T1, Replicase polyprotein 1ab; assay: Inhibition of SARS-CoV-2 3CL protease by luciferase reporter assay
[6] = Binding affinity to SARS-CoV-2 Main protease assessed as inhibition constant; parameters: species or system Severe acute respiratory syndrome coronavirus 2
[7] = Inhibition of SARS-Cov-2 Main protease by FRET assay; parameters: species or system Severe acute respiratory syndrome coronavirus 2
SARS-CoV-2 [8] = assay: Antiviral activity against SARS-CoV-2 infected in African green monkey Vero cells assessed as reduction in viral replication incubated for 72 hrs by RT-qPCR analysis; type: functional, organism-based; conditions: Severe acute respiratory syndrome coronavirus 2, Vero
SARS-CoV-2 [9] = assay: Antiviral activity against SARS-CoV-2 infected in Vero E6 cells assessed as reduction in viral replication; type: functional, organism-based; conditions: Severe acute respiratory syndrome coronavirus 2, Vero C1008
[10] = Inhibition of SARS-CoV-2 Main protease using DABCYL-KTSAVLQ-SGFRKM-E(EDANS) as substrate pre-treated for 15 mins and measured for 60 mins by FRET assay; parameters: species or system Severe acute respiratory syndrome coronavirus 2
[11] = Inhibition of C-terminal GST-tagged SARS-CoV-2 Main protease extracted from Escherichia coli BL21 (DE3) measured for 60 mins by FRET assay; parameters: species or system Severe acute respiratory syndrome coronavirus 2
[12] = Inhibition of MERS-CoV 3CLpro by FRET assay; parameters: species or system Middle East respiratory syndrome-related coronavirus
[13] = target: T1, Replicase polyprotein 1ab; assay: Inhibition of SARS-CoV-2 3CL protease using DabcylKTSAVLQSGFRKME-Edans amide as substrate measured for 1 hrs by FRET assay
[14] = target: T1, Replicase polyprotein 1ab; assay: Inhibition of N-terminal 6His-tagged SARS-CoV-2 3CL protease using FAM-SAVLQ as substrate pre-incubated for 15 mins followed by substrate addition and incubated for 30 mins by FRET analysis

CCC1(OC(=O)N[C@@H](CC(C)C)C(=O)N[C@H](C=O)C[C@@H]2CCNC2=O)COCOC1
IC50 [1]: 450 nM

COc1cc(O)c2c(c1)O[C@H](c1cc(O)c(O)c(O)c1)[C@@H](O)C2=O
IC50 [2]: 260 nM | EC50 (SARS-CoV-2 [3]): 8000 nM

CC(=O)NCC(=O)N[C@@H](Cc1ccccc1)C(=O)N[C@H](C=O)Cc1c[nH]cn1 (Ac-Gly-Phe-His-aldehyde)
IC50 [4]: 2510 nM

CC(C)C[C@H](NC(=O)O[C@@H](C)c1ccccc1)C(=O)N[C@H](C=O)C[C@@H]1CCNC1=O
IC50 [2]: 130 nM

C=CC(=O)N(c1ccc(C(C)(C)C)cc1)C(C(=O)NCc1ccccc1)c1cccnc1 (centres undefined)
IC50 [2]: 2860 nM

C=CC(=O)O[C@H](C(=O)NCc1cccc(OC)c1OC)c1ccc([N+](=O)[O-])cc1
IC50 [5]: 9390 nM

COc1cc(-c2cccc3[nH]ncc23)cc(C=O)c1OCC(=O)N1CCC(c2cccc(C(=O)N(C)C)c2)C1 (centres undefined)
Ki [6]: 45 nM

CC(C)C[C@H](NC(=O)OCC1CCC(F)(F)CC1)C(=O)N[C@@H](C[C@@H]1CCNC1=O)C(O)S(=O)(=O)O (some centres undefined)
IC50 [1]: 100 nM

C=CC(=O)N(c1ccc(C(C)(C)C)cc1)C(C(=O)NCCOC)c1cccnc1 (centres undefined)
IC50 [2]: 2860 nM

C=CC(=O)N(c1ccc(C(C)(C)C)cc1)C(C(=O)NCCc1cccc(F)c1)c1cccnc1 (centres undefined)
IC50 [2]: 2860 nM

COc1cccc2[nH]c(C(=O)N[C@@H](CC(C)C)C(=O)N[C@@H](C[C@@H]3CCNC3=O)C(=O)CO)cc12 [PF-00835231]
IC50 [2]: 600 nM

O=C(Oc1cncc(Cl)c1)c1cccs1
IC50 [2]: 81 nM

[2H]c1c([2H])c([2H])c(COC(C)N[C@@H](CC(C)C)C(=O)N[C@H](C=O)C[C@@H]2CCNC2=O)c([2H])c1[2H] (some centres undefined)
IC50 [2]: 160 nM

C=CC(=O)N(c1ccc(C(C)(C)C)cc1)C(C(=O)NC(C)(C)C)c1cccnc1 (centres undefined)
IC50 [2]: 2950 nM

CCOC(=O)/C=C/[C@H](C[C@@H]1CCNC1=O)NC(=O)[C@H](CC#N)n1cccc(NC(=O)c2cc(C)on2)c1=O
IC50 [7]: 101000 nM

CCCCC1CCC(OC(=O)N[C@@H](CC(C)C)C(=O)N[C@H](C=O)C[C@H]2CCNC2=O)CC1 (some centres undefined)
IC50 [2]: 130 nM

CCOC(=O)/C=C/[C@H](C[C@@H]1CCNC1=O)NC(=O)[C@@H](CC(=O)[C@@H](NC(=O)c1cc(C)on1)C(C)C)Cc1ccc(F)cc1
IC50 [2]: 68000 nM | IC50 [7]: 47000 nM | EC50 (SARS-CoV-2 [3]): 1870 nM

CCC[C@H](NC(=O)[C@@H]1[C@H]2CCC[C@H]2CN1C(=O)[C@@H](NC(=O)[C@@H](NC(=O)c1cnccn1)C1CCCCC1)C(C)(C)C)C(=O)C(=O)NC1CC1
EC50 (SARS-CoV-2 [8]): 1310 nM

Cc1ccc(C(=O)C(C)CN2CCCCC2)cc1 (centres undefined) [TOLPERISONE]
EC50 (SARS-CoV-2 [9]): 19200 nM

O=C[C@H](C[C@@H]1CCNC1=O)NC(=O)[C@H](CC1CC1)NC(=O)OCc1ccccc1
IC50 [2]: 130 nM

CCOC(=O)/C=C/[C@H](C[C@@H]1CCNC1=O)NC(=O)[C@@H](CC(=O)[C@@H](NC(=O)OCc1ccccc1)[C@H](C)OC(C)(C)C)CC(C)O (some centres undefined)
IC50 [2]: 151 nM

O=Cc1ncc(Br)cc1OCc1cc(Br)ccc1Cl
IC50 [10]: 6000 nM

Cc1ccc(COc2cc(Br)cnc2C=O)cc1[N+](=O)[O-]
IC50 [10]: 12000 nM

O=Cc1ncc(Br)cc1OCc1ccc(Cl)c(Br)c1
IC50 [10]: 6000 nM

COc1cc(-c2cccc3[nH]ncc23)cc(C=O)c1OCC(=O)N(C)C
Ki [6]: 20 nM | EC50 (SARS-CoV-2 [9]): 5190 nM

O=c1c2cccc([N+](=O)[O-])c2[se]n1Cc1ccccc1
IC50 [11]: 2010 nM

O=C[C@H](C[C@@H]1CCNC1=O)NC(=O)[C@@H]1[C@H]2CCC[C@H]2CN1C(=O)CCc1ccc(Cl)cc1Cl
EC50 (SARS-CoV-2 [9]): 540 nM

CCCCCCCC(=O)NCC(=O)N[C@@H](Cc1ccccc1)C(=O)N[C@H](C=O)Cc1c[nH]cn1 (Octanoyl-Gly-Phe-His-aldehyde)
IC50 [4]: 2370 nM

COc1ccccc1[C@@H]1C[C@H]1COC(=O)N[C@@H](CC(C)C)C(=O)N[C@H](C=O)CC1CCNC1=O (some centres undefined)
IC50 [12]: 70 nM | IC50 [13]: 140 nM

O=C(CCl)Nc1sc(-c2ccccc2)cc1C(=O)NC1CC1
IC50 [5]: 2360 nM

CC(C)C[C@H](NC(=O)[C@@H](NC(=O)C1CCCCC1)C(C)C)C(=O)N[C@H](C=O)C[C@@H]1CCCNC1=O
IC50 [2]: 240 nM

O=Cc1ncc(Br)cc1OCc1ccc(Cl)c([N+](=O)[O-])c1
IC50 [10]: 1000 nM

COc1cccc2[nH]c(C(=O)N3C[C@H]4[C@@H]([C@H]3C(=O)N[C@@H](C[C@@H]3CCNC3=O)C(=O)c3nc5ccccc5s3)C4(C)C)cc12
IC50 [2]: 55 nM

CC(C)C[C@H](NC(=O)OC[C@@H]1C[C@H]1C1CCC(F)(F)CC1)C(=O)N[C@@H](C[C@H]1CCNC1=O)[C@H](O)S(=O)(=O)O
IC50 [14]: 170 nM
